Measurements: patent US20240207267A1, “(R)-Glutarimide CRBN Ligands and Methods of Use” (BeiGene Switzerland GmbH, priority 2021, published 2024)

Columns and labels:
CRBN&DDB1 protein = CRBN&DDB1 protein (Homo sapiens (Human), UniProt Q96SW2); assay: CRBN&DDB1 HTRF (TR-FRET) assay, blocking binding of biotin labeled thalidomide; conditions: CRBN&DDB1 protein (His Tag), 30 nM biotin labeled thalidomide
Protocol: Biochemical potency of compound was determined by using CRBN& DDB1 protein (His Tag). Compounds were tested for blocking the binding of CRBN&DDB1 protein (CRBN, aa 40-442, DDB1, 1-1140, Viva Biotech) with biotin labeled thalidomide in an assay based on the time-resolved fluorescence-resonance energy transfer (TR-FRET) methodology. The assay was carried out in 384-well low volume black plates in a reaction mixture containing CRBN& DDB1 protein, 30 nM biotin labeled thalidomide and 0-10 μM compound in buffer containing 50 mM HEPES pH7.5, 50 mM NaCl, 0.01% BSA, 1 mM DTT and 0.015% Brij-35. The protein was preincubated with compound for 60 minutes at room temperature and biotin labeled thalidomide was added to plate. After further incubation at room temperature for 60 minutes detection reagents Mab Anti-6His Eu cryptate Gold (Cisbio, Cat #61HI2KLB) and Streptavidin-XL665 (Cisbio, Cat #610SAXLG) were added to plate. Plates were sealed and incubated at room temperature for 1 hour, and the TR-FRET signals (ex337 nm, em665 nm/620 nm) were recorded on a PHERAstar FSX plate reader (BMG Labtech). The inhibition percentage of CRBN& DDB1 protein interaction with biotin labeled thalidomide in presence of increasing concentrations of compounds was calculated based on the ratio of fluorescence at 665 nm to that at 620 nm. IC50 was derived from fitting the dose-response % inhibition data to the four-parameter logistic model by Dotmatics.
Four-parameter logistic equation: Y=Bottom+(Top−Bottom)/(1+10^((LogIC50−X) *HillSlope)). While X is Log of compound concentration. Y is % inhibition at X. Bottom is the bottom of the curve effect. Top is the top of the curve effect. HillSlope is the hill slope factor.

[1] = test system: EGFR Del19/T790M/C797S (BaF3-DTC cells); assay: EGFR degradation HTRF assay in BaF3-DTC cells; type: cell-based; conditions: 16 h treatment, Table 1; for DTC Dmax: maximum percentage of degradation
Protocol: (§1) BaF3-LTC(L858R/T790M/C797S) and BaF3-DTC(Del19/T790M/C797S) cells are treated with compounds diluted in 0.2% DMSO cell culture medium and incubate for 16 h, 37° C., 5% CO2, H1975- #28 cells are treated with compounds diluted in 0.2% DMSO cell culture medium on day 2, incubate for 16 h, 37° C., 5% CO2. the final concentration of compounds in all assay is start with 10 uM, 5-fold dilution, total 8 doses were included.
(§2) After 16 h treatment, add HTRF lysis buffer to each well; seal the plate and incubate 1 hour at room temperature on a plate shaker; Once the cells are lysed, 16 μL of cell lysate are transferred to a PE 384-well HTRF detection plate; 4 μL of pre-mixed HTRF antibodies are added to each well; Cover the plate with a plate sealer, spin 1000 rpm for 1 min, Incubate overnight at room temperature; Read on BMG PheraStar with HTRF protocol (337 nm-665 nm-620 nm).
(§3) The IC50 (DC50) value of a compound can be obtained by fitting the following equation
(§4) Y=Bottom+(TOP−Bottom)/(1+((IC50/X)^hillslope))
(§5) Wherein, X and Y are known values, and IC50, Hillslope, Top and Bottom are the parameters obtained by fitting with software. Y is the inhibition percentage (calculated from the equation), X is the concentration of the compound; IC50 is the concentration of the compound when the 50% inhibition is reached. The smaller the IC50 value is, the stronger the inhibitory ability of the compound is. Vice versa, the higher the IC50 value is, the weaker the ability the inhibitory ability of the compound is; Hillslope represents the slope of the fitted curve, generally around 1*; Bottom represents the minimum value of the curve obtained by data fitting, which is generally 0%±20%; Top represents the maximum value of the curve obtained by data fitting, which is generally 100%±20%. The experimental data were fitted by calculating and analyzing with Dotmatics data analysis software.

[2] = target: EGFR L858R/T790M/C797S (BaF3-LTC cells) (Homo sapiens (Human), UniProt P00533, C797S/L858R/T790M); assay: EGFR degradation HTRF assay in BaF3-LTC cells; type: cell-based; conditions: 16 h treatment; for DC50: Table 1, read-out: LTC DC50; for Dmax: maximum percentage of degradation, Table 1, read-out: LTC Dmax
Sequence of EGFR L858R/T790M/C797S (BaF3-LTC cells) (P00533 25-1210 T790M/C797S/L858R): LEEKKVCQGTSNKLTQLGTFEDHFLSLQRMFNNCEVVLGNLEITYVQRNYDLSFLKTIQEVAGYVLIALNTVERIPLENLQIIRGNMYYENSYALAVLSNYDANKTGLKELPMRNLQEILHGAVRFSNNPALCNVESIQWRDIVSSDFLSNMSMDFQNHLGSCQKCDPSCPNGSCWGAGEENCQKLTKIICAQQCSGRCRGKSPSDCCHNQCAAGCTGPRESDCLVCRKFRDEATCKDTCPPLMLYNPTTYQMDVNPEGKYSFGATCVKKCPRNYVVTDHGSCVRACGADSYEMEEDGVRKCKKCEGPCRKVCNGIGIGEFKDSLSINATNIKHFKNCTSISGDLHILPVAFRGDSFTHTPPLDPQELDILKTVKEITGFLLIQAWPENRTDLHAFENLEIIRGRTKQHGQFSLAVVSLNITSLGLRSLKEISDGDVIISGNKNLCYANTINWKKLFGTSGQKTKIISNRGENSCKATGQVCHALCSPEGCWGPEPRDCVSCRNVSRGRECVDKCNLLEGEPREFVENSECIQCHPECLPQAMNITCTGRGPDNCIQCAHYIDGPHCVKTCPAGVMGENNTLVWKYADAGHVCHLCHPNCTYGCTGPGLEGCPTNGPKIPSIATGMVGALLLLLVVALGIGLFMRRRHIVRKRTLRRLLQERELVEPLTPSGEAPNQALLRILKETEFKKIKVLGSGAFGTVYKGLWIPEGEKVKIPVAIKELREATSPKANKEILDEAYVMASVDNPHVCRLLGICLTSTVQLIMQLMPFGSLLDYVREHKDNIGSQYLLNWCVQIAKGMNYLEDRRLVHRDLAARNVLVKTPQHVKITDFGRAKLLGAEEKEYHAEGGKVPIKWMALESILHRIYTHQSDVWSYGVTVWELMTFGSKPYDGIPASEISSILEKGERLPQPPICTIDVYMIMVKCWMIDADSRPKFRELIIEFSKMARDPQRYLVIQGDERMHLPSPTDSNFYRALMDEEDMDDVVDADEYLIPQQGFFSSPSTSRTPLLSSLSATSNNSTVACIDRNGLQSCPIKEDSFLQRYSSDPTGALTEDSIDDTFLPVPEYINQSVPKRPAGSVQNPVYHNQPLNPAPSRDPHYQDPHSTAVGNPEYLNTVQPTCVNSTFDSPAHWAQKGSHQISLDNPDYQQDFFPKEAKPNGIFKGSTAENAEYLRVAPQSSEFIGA
Protocol: as §1, §2, §3, §4, §5

HEK-293 cells = assay: HEK-293 cytotoxicity detection (CellTiter-Glo); type: cell-based; conditions: Homo sapiens, HEK293, 72 h incubation
Protocol: HEK-293 cells were treated with compounds diluted in 0.2% DMSO, dilution was done according to the following protocol: (1) making 500× stock solution in DMSO from 5 mM by 4-fold dilution, total 8 doses were included; (2) making 2× solution in cell culture medium by transferring 0.5ul 500× stock solution into 125ul medium; (3) adding 50ul of 2× solution to cells for incubation of 72 h.
25 μl of the CellTiter-Glo®Reagent [(Promega) - Cat No. G7572] was added to each well in the 96-well plate. The contents were mixed for 2 minutes on an orbital shaker to induce cell lysis. The plate was then allowed to incubate at room temperature for 10 minutes to stabilize luminescent signal. Luminescence was recorded on BMG PheraStar with luminescence protocol.
The IC50 value of a compound can be obtained by fitting the following equation
as §4, §5

BTK (TMD-8 cells) = BTK (TMD-8 cells) (Homo sapiens (Human), UniProt Q06187); assay: BTK degradation HTRF assay in TMD-8 cells (Test Example 3); type: cell-based; conditions: 6 h treatment, Table 5
Sequence of BTK (TMD-8 cells) (Q06187 whole entry): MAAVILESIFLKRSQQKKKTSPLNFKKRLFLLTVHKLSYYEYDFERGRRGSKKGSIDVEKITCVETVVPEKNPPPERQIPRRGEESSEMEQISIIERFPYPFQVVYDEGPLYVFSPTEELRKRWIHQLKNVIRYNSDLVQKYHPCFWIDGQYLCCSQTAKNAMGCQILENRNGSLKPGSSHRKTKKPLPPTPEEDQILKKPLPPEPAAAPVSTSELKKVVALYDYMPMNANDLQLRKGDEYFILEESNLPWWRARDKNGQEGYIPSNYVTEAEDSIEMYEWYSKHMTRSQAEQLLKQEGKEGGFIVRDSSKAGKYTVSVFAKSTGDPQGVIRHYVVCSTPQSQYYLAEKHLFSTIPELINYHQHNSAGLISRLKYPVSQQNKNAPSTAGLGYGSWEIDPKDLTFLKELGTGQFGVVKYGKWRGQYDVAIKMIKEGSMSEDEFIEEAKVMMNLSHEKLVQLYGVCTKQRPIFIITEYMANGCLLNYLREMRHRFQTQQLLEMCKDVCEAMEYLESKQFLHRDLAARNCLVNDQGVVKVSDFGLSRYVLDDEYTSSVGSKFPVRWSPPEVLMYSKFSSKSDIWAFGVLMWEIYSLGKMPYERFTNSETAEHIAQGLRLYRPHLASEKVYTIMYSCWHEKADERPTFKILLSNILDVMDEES
Protocol: TMD-8 cells were treated with compounds diluted in 0.2% DMSO, dilution was done according to the following protocol: (1) making 500× stock solution in DMSO from 1 mM by 6-fold dilution, total 8 doses were included; (2) making 2× solution in cell culture medium by transferring 0.5 μl 500× stock solution into […]; (3) adding 15 μl of 2× solution to cells for incubation of 6 h.
After 6 h treatment, 10 μl 4xlysis buffer was added to each well; the plate was sealed and incubated for 30 min at room temperature on a plate shaker; Once the cells was lysed, 16 μL of cell lysate were transferred to a PE 384-well HTRF detection plate; 4 μL of pre-mixed HTRF antibodies were added to each well; the plate was covered with a plate sealer, and then spinned at 1000 rpm for 1 min, then incubated overnight at room temperature; the results were read on BMG PheraStar with HTRF protocol (337 nm-665 nm-620 nm).
as §3, §4
as §5, with “wherein,” for “Wherein,”

Sequence of CRBN&DDB1 protein (Q96SW2 40-442): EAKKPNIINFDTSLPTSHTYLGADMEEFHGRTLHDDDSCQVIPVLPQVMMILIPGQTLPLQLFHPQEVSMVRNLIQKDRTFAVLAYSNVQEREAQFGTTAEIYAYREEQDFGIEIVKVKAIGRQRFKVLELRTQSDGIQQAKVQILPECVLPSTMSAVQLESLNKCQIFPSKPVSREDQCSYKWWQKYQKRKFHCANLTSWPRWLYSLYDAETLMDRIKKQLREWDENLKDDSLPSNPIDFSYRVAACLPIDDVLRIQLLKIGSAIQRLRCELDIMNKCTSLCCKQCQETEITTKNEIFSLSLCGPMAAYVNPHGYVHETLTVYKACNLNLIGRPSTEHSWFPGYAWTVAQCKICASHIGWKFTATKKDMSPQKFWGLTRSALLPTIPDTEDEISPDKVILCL
Sequence of CRBN&DDB1 protein (Q16531 whole entry partner, the tested form may be a part): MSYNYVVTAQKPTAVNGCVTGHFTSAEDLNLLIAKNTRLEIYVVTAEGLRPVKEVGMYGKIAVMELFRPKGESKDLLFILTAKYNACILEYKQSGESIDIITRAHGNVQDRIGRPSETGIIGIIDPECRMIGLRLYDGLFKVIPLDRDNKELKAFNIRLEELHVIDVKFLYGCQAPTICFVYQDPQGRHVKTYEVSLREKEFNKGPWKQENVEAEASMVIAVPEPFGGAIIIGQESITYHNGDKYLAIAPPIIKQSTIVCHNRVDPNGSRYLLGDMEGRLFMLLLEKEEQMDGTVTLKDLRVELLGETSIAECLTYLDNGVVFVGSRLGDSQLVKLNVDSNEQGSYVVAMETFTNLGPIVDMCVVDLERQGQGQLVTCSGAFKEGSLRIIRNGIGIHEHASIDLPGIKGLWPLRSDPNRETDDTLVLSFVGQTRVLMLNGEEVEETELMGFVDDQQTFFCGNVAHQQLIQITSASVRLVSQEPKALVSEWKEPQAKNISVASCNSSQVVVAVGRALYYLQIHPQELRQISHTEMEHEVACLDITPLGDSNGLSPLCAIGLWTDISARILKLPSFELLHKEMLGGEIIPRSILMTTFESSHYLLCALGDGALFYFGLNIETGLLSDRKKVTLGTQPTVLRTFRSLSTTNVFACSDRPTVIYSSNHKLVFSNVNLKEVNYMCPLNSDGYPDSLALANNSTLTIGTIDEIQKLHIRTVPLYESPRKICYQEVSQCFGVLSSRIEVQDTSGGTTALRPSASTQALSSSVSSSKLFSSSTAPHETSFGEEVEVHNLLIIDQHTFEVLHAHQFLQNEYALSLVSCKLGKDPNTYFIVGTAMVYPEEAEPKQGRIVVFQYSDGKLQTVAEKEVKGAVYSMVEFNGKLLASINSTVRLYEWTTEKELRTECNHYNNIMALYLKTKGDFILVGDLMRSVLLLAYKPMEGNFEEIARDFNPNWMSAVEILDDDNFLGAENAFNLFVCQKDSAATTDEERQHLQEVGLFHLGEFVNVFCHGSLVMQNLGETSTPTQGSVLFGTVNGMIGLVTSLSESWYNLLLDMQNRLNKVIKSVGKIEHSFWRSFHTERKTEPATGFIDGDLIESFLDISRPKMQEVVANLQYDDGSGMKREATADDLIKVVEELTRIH

CC1(C)CN(c2cc(F)c([C@H]3CCC(=O)NC3=O)c(F)c2)C[C@H]1C(=O)O [Example 14, (S)-1-(4-((R)-2,6-dioxopiperidin-3-yl)-3,5-difluorophenyl)-4,4-dimethylpyrrolidine-3-carboxylic acid] gave an IC50 (CRBN&DDB1 protein) of 24 nM.
O=C1CCC(c2ccc(CCO)cc2)C(=O)N1 (stereo not drawn) [Example 15, 3-(4-(2-hydroxyethyl)phenyl)piperidine-2,6-dione] gave an IC50 (CRBN&DDB1 protein) of 239 nM.
With CCc1cc(Nc2ncc(Br)c(Nc3ccc4nccnc4c3P(C)(C)=O)n2)c(OC)cc1N1CCC(N2CCN(CCc3cc(F)c([C@H]4CCC(=O)NC4=O)c(F)c3)CC2)CC1 [Example 16, (R)-3-(4-(2-(4-(1-(4-((5-bromo-4-((5-(dimethylphosphoryl)quinoxalin-6-yl)amino)pyrimidin-2-yl)amino)-2-ethyl-5-methoxyphenyl)piperidin-4-yl)piperazin-1-yl)ethyl)-2,6-difluorophenyl)piperidine-2,6-dione] the DC50 [1] was 0.61 nM, the “DTC Dmax” value [1] was 88.65% and the DC50 [2] was 6.1 nM. It also gave a Dmax [2] of 91.5%.
CCc1cc(Nc2ncc(Br)c(Nc3ccc4nccnc4c3P(C)(C)=O)n2)c(OC)cc1N1CCC(N2CCN(CCc3cc(F)c([C@@H]4CCC(=O)NC4=O)c(F)c3)CC2)CC1 [Example 17, (S)-3-(4-(2-(4-(1-(4-((5-bromo-4-((5-(dimethylphosphoryl)quinoxalin-6-yl)amino)pyrimidin-2-yl)amino)-2-ethyl-5-methoxyphenyl)piperidin-4-yl)piperazin-1-yl)ethyl)-2,6-difluorophenyl)piperidine-2,6-dione] was tested, and the DC50 [1] was 6.75 nM, the “DTC Dmax” value [1] was 64.81% and the DC50 [2] was 45.1 nM. It also gave a Dmax [2] of 84.6%.
In the case of CCc1cc(Nc2ncc(Br)c(Nc3ccc4nccnc4c3P(C)(C)=O)n2)c(OC)cc1N1CCC(N2CCN(CCc3cc(F)c(C4CCC(=O)NC4=O)c(F)c3)CC2)CC1 (stereo not drawn) [Example 18, 3-(4-(2-(4-(1-(4-((5-bromo-4-((5-(dimethylphosphoryl)quinoxalin-6-yl)amino)pyrimidin-2-yl)amino)-2-ethyl-5-methoxyphenyl)piperidin-4-yl)piperazin-1-yl)ethyl)-2,6-difluorophenyl)piperidine-2,6-dione], the DC50 [1] is reported as 3.74 nM, the “DTC Dmax” value [1] is reported as 95.55% and the DC50 [2] is reported as 8.82 nM.
CCc1cc(Nc2ncc(Br)c(Nc3ccc4nccnc4c3P(C)(C)=O)n2)c(OC)cc1N1CCC(N2CCN(CCc3ccc(C4CCC(=O)NC4=O)cc3)CC2)CC1 (stereo not drawn) [Example 19, 3-(4-(2-(4-(1-(4-((5-bromo-4-((5-(dimethylphosphoryl)quinoxalin-6-yl)amino)pyrimidin-2-yl)amino)-2-ethyl-5-methoxyphenyl)piperidin-4-yl)piperazin-1-yl)ethyl)phenyl)piperidine-2,6-dione] was tested, and the DC50 [1] was 6.87 nM, the “DTC Dmax” value [1] was 92.16% and the DC50 [2] was 18.2 nM.
For Cc1cccc(NC(=O)c2ccc(-c3nn4c(c3C(N)=O)Nc3ccc(N5CCN(CCc6cc(F)c([C@H]7CCC(=O)NC7=O)c(F)c6)CC5)cc3CC4)c(F)c2C)n1 [Example B35, (R)-7-(4-(4-(2,6-dioxopiperidin-3-yl)-3,5-difluorophenethyl)piperazin-1-yl)-2-(2-fluoro-3-methyl-4-((6-methylpyridin-2-yl)carbamoyl)phenyl)-9,10-dihydro-4H-benzo[d]pyrazolo[1,5-a][1,3]diazepine-3-carboxamide], the IC50 (HEK-293 cells) was greater than 10000 nM and the DC50 (BTK (TMD-8 cells)) was 2.32 nM.
With Cc1c(C(=O)Nc2cn(C)cn2)ccc(-c2nn3c(c2C(N)=O)Nc2ccc(N4CCN(CCc5cc(F)c([C@H]6CCC(=O)NC6=O)c(F)c5)CC4)cc2CC3)c1F [Example B37, (R)-7-(4-(4-(2,6-dioxopiperidin-3-yl)-3,5-difluorophenethyl)piperazin-1-yl)-2-(2-fluoro-3-methyl-4-((1-methyl-1H-imidazol-4-yl)carbamoyl)phenyl)-9,10-dihydro-4H-benzo[d]pyrazolo[1,5-a][1,3]diazepine-3-carboxamide] the IC50 (HEK-293 cells) was greater than 10000 nM and the DC50 (BTK (TMD-8 cells)) was 0.414 nM.
Cc1c(C(=O)Nc2cscn2)ccc(-c2nn3c(c2C(N)=O)Nc2ccc(N4CCN(CCc5cc(F)c([C@H]6CCC(=O)NC6=O)c(F)c5)CC4)cc2CC3)c1F [Example B38, (R)-7-(4-(4-(2,6-dioxopiperidin-3-yl)-3,5-difluorophenethyl)piperazin-1-yl)-2-(2-fluoro-3-methyl-4-(thiazol-4-ylcarbamoyl)phenyl)-9,10-dihydro-4H-benzo[d]pyrazolo[1,5-a][1,3]diazepine-3-carboxamide] showed an IC50 (HEK-293 cells) of 26.8 nM and a DC50 (BTK (TMD-8 cells)) of 1.7 nM.
Cc1cc(-c2cc(Nc3cccc(N4CCN(CC5CCN(c6ccc(N7CCC(=O)NC7=O)cc6)CC5)CC4)c3)ncn2)c(F)cc1[C@@H](C)NC(=O)c1nc(C(C)(C)C)no1 [Example C39, (R)-3-(tert-butyl)-N-(1-(4-(6-((3-(4-((1-(4-(2,4-dioxotetrahydropyrimidin-1(21)-yl)phenyl)piperidin-4-yl)methyl)piperazin-1-yl)phenyl)amino)pyrimidin-4-yl)-5-fluoro-2-methylphenyl)ethyl)-1,2,4-oxadiazole-5-carboxamide] showed an IC50 (HEK-293 cells) greater than 10000 nM and a DC50 (BTK (TMD-8 cells)) of 242 nM.
